Laboratory results reported in patent publication US5091311A, “The production of KSB-1939 macrolides using STR eptomyces hygroscopicus” (Kumiai Chemical Industry Co., Ltd., priority 1987, dated 1992).
In brackets after ≈: the same amount, converted by molar mass.

How the values were obtained:
[1] = Distinction of basic, acidic or neutral; type: physicochemical
Solubility = type: physicochemical; conditions: for Solubility in organic solvents: methanol, acetone, ethyl acetate, chloroform and hexane
Twospotted Spider Mite [2] = assay: Test 2 LC50 against twospotted spider mite; type: in vivo, Teranychus urticae Koch; conditions: 48 h; for LC50: Tetranychus urticae, following procedure of Test 1
Description: (§1) Each of polyethylene-made cups having a diameter of 55 mm and filled with water was covered with a lid through which a hole having a diameter of 10 mm was formed centrally. Absorbent cotton was suspended through the hole of the lid so as to absorb water. A sheet of filter paper was placed on the lid. Two bean leaf disks were place don the filter paper so that the disks were always supplied with water. Using a writing brush, adult female two spotted spider mites were inoculated at a rate of 10 mites per leaf disk. Twenty-four hours later, abnormal mites were removed, and wettable powders which had been prepared in accordance with the procedures of Preparation Examples 4-6 respectively were separately diluted to a predetermined concentration and sprayed to apply 2 mg/cm^2 of the respective agrochemical solutions. The test was conducted dually. Two days after the treatment with the agrochmical solutions, it was determined through a stereoscopic microscope whether the mites were alive or dead. The corrected mite mortality was calculated in accordance with the following equation. [formula]
(§2) Following the procedure of Test 1, tests were conducted with respect to Kanzawa spider mite and twospotted spider mite so that their LC50 values were determined. Milbemycin was used as a control.

Kanzawa spider mite = assay: Test 2 LC50 against Kanzawa spider mite; type: in vivo, Tetranychus kanzawai Kishida; conditions: 48 h; for LC50: Tetranychus kanzawai, following procedure of Test 1
Description: as §1, §2

Twospotted Spider Mite [3] = assay: Test 1 miticidal test against adult female twospotted spider mite; type: in vivo, Teranychus urticae Koch; conditions: Tetranychus urticae, 48 h, 2 days after treatment, read-out: Corrected mite mortality
Description: Test 1 (Miticidal Test against Adult Female Twospotted Spider Mite)
as §1

[4] = tested on: microfilariae of Dirofilaria immitis; assay: microbe, parasite or virus in culture; conditions: 240 h, read-out: LD50
Brown Rice Planthopper = assay: Test 3 insecticidal test against brown rice planthopper; type: in vivo, Nilaparvata lugens Stal; conditions: 120 h, larvae, 5 days, 25° C.
Experimental: Test 3 (Insecticidal Test against Brown Rice Planthopper) Wettable powders which had been prepared following the procedures of Preparation Examples 4-6 respectively were diluted with water to a predetermined concentration. Rice stems and leaves were dipped in the resultant solutions and then dried in the air. They were placed in test tubes. Ten brown rice planthopper larvae were placed in each test tube. The test tubes were plugged with absorbent cotton and the larvae were reared for 5 days in a constant-temperature chamber of 25° C. The test was conducted dually. The numbers of larvae were counted after the rearing, whereby mortality values of brown rice planthopper were calculated.

Asiatic Rice Borer = assay: Test 5 insecticidal test against Asiatic rice borer; type: in vivo, Chilo suppressalis Walker; conditions: Chilo suppressalis, 120 h, 3rd-instar larvae, 5 days, 25° C.
Experimental: (§3) Test 5 (Insecticidal Test against Asiatic Rice Borer) Wettable powders which had been prepared following the procedures of Preparation Examples 4-6 respectively were diluted with water to a predetermined concentration. Sprouted unhulled rice seeds were dipped in the resultant solutions and then dried in the air. They were placed separately in polyethylene-made cups having a diameter of 55 mm. Ten 3rd-instar larvae of asiatic rice borer were placed in each cup. The larvae were reared for 5 days in a constant-temperature chamber of 25° C. The test was conducted dually. The numbers of dead larvae were counted after the rearing, whereby mortality values of asiatic rice borer were calculated.

Haemonchus concurtus = assay: Test 10 test against sheep nematode; type: in vivo, Haemonchus concurtus (in sheep); conditions: oral drench into rumen, once
Experimental: Test 10 (Test against Sheep Nematode) A test was conducted using sheep which had been infected with Haemonchus concurtus. Namely, KSB-1939H4 of this invention was formulated into oral drenches. Four sheep which had been infected artificially with Haemonchus concurtus were administered with the compound by injecting the oral drenches into their rumens respectively. They were treated only once by a single dosage of 0.5 mg/kg-body weight or 1.0 mg/kg-body weight. Evaluation was conducted by comparing the number of eggs contained in feces excreted from each sheep before the treatment with that of eggs contained in feces excreted from the sheep after the treatment.

Toxocara canis = assay: Test 8 test against dog nematodes (Toxocara canis); type: in vivo, Toxocara canis (in dogs); conditions: dogs, once
Experimental: (§4) Test 8 (Test against Dog Nematodes) A test was conducted using dogs which had been infected naturally with Ancylostoma caninum or Toxocara canis. Namely, using 8 hybrid dogs of 2 months old, KSB-1939H2 according to this invention was administered subcutaneously at a dosage of 0.1 mg/kg-body weight or orally at a dosage of 0.5 mg/kg-body weight. Administration was effected only once. Evaluation was conducted by comparing the number of eggs contained in feces excreted from each dog before the treatment with that of eggs contained in feces excreted from the dog after the treatment.

[5] = Test 11 acute toxicity test (oral), mouse; design: species or system mouse (B6 C3 F1); conditions: in vivo, male
Description: (§5) Test 11 (Acute Toxicity Test)
(§6) The acute toxicity (oral) of one of the compounds of this invention was investigated using rats (male and female, F344, 7 weeks old) and mice (male and female, B6 C3 F1, 7 weeks old).

Toxocara cati = assay: Test 9 test against cat nematode; type: in vivo, Toxocara cati (in cats); conditions: cats
Experimental: Test 9 (Test against Cat Nematode) A test was conducted using cats which had been infected naturally with Toxocara cati. Namely, 4 hybrid cats infected with the nematode were administered with KSB-1939H2 of this invention at a dosage of 0.05 mg/kg-body weight in the case of subcutaneous administration or at a dosage of 0.1 mg/kg-body weight in the case of oral administration. Evaluation was conducted by comparing the number of eggs contained in feces excreted from each cat before the treatment with that of eggs contained in feces excreted from the cat after the treatment.

[6] = Test 11 acute toxicity test (oral), rat; design: species or system rat (F344); conditions: in vivo, male
Description: as §5, §6

Ancylostoma caninum = assay: Test 8 test against dog nematodes (Ancylostoma caninum); type: in vivo, Ancylostoma caninum (in dogs); conditions: dogs, once
Experimental: as §4

Diamondback Moth = assay: Test 4 insecticidal test against diamondback moth; type: in vivo; conditions: Plutella xylostella, 120 h, 3rd-instar larvae, 5 days, 25° C.
Experimental: Test 4 (Insecticidal Test against Diamondback Moth)
as §3, with “Wettable” for “Test 5 (Insecticidal Test against Asiatic Rice Borer) Wettable”, “Cabbage leaves” for “Sprouted unhulled rice seeds”, “placed” for “placed separately”, “polyethylene-madecups” for “polyethylene-made cups”, “diamondback moth” for “asiatic rice borer”

CC1=CCC2CC(CC3(CCC(C)C(C)O3)O2)OC(=O)C2C=C(COC(=O)C(C)C)C(O)C3OCC(=CC=CC(C)C1)C23O (stereo not drawn) [KSB-1939L3α]
Distinction of basic, acidic or neutral [1]: Neutral
Solubility in organic solvents (Solubility): Soluble
Solubility in water (Solubility): Insoluble

Milbemycin [reference compound]
LC50 Twospotted spider mite (Twospotted Spider Mite [2]; twospotted spider mite, in vivo): 0.339 ppm
LC50 Kanzawa spider mite (Kanzawa spider mite; kanzawa spider mite, in vivo): 0.485 ppm

CCC(C)=CC(=O)OCC1=CC2C(=O)OC3CC(CC=C(C)CC(C)C=CC=C4COC(C1O)C42O)OC1(CCC(C)C(C)O1)C3 (stereo not shown) [KSB-1939H4]
mortality at 0.04 ppm (Twospotted Spider Mite [3]): 94.2%
mortality at 0.2 ppm (Twospotted Spider Mite [3]): 100%
mortality at 1 ppm (Twospotted Spider Mite [3]): 100%
LC50 [4]: 3.3 µg/mL (≈ 5.15 µM)
mortality at 1 ppm (Brown Rice Planthopper): 65%
mortality at 5 ppm (Brown Rice Planthopper): 100%
mortality at 0.2 ppm (Asiatic Rice Borer): 90%
mortality at 1 ppm (Asiatic Rice Borer): 100%
activities (eggs in feces before and after treatment) (Haemonchus concurtus; 0.5 mg/kg): 80-90%
activities (eggs in feces before and after treatment) (Haemonchus concurtus; 1.0 mg/kg): 100%
Distinction of basic, acidic or neutral [1]: Neutral
Solubility in organic solvents (Solubility): Soluble
Solubility in water (Solubility): Insoluble

CC(C)=CC(=O)OCC1=CC2C(=O)OC3CC(CC=C(C)CC(C)C=CC=C4COC(C1O)C42O)OC1(CCC(C)C(C)O1)C3 (stereo not shown) [KSB-1939H2]
activities (eggs in feces before and after treatment) (Toxocara canis; oral 0.5 mg/kg): 100%
activities (eggs in feces before and after treatment) (Toxocara canis; subcutaneous 0.1 mg/kg): 100%
LD50 [5]: > 5000 mg/kg
activities (eggs in feces before and after treatment) (Toxocara cati; oral 0.1 mg/kg): 100%
activities (eggs in feces before and after treatment) (Toxocara cati; subcutaneous 0.05 mg/kg): 100%
LD50 [6]: > 5000 mg/kg
mortality at 0.004 ppm (Twospotted Spider Mite [3]; 0.004 ppm): 70.1%
mortality at 0.2 ppm (Twospotted Spider Mite [3]): 100%
mortality at 1 ppm (Twospotted Spider Mite [3]): 100%
LC50 [4]: 3.4 µg/mL (≈ 5.42 µM)
mortality at 1 ppm (Brown Rice Planthopper): 95%
mortality at 5 ppm (Brown Rice Planthopper): 100%
activities (eggs in feces before and after treatment) (Ancylostoma caninum; oral 0.5 mg/kg): 100%
activities (eggs in feces before and after treatment) (Ancylostoma caninum; subcutaneous 0.1 mg/kg): 100%
mortality at 0.2 ppm (Asiatic Rice Borer): 90%
mortality at 1 ppm (Asiatic Rice Borer): 100%
LC50 (Twospotted Spider Mite [2]): 0.0249 µg/mL (≈ 0.0397 µM)
Distinction of basic, acidic or neutral [1]: Neutral
LC50 (Kanzawa spider mite): 0.0465 µg/mL (≈ 0.0742 µM)
Solubility in organic solvents (Solubility): Soluble
Solubility in water (Solubility): Insoluble

CC1=CCC2CC(CC3(CCC(C)C(C)O3)O2)OC(=O)C2C=C(COC(=O)CCC(C)C)C(O)C3OCC(=CC=CC(C)C1)C23O (stereo not shown) [KSB-1939H5]
mortality at 1 ppm (Twospotted Spider Mite [3]): 100%
mortality at 5 ppm (Twospotted Spider Mite [3]): 100%
LC50 [4]: 1.6 µg/mL (≈ 2.49 µM)
mortality at 25 ppm (Brown Rice Planthopper): 95%
mortality at 0.2 ppm (Asiatic Rice Borer): 90%
mortality at 1 ppm (Asiatic Rice Borer): 100%
Distinction of basic, acidic or neutral [1]: Neutral
Solubility in organic solvents (Solubility): Soluble
Solubility in water (Solubility): Insoluble
mortality at 25 ppm (Diamondback Moth): 100%

CCCC(=O)OCC1=CC2C(=O)OC3CC(CC=C(C)CC(C)C=CC=C4COC(C1O)C42O)OC1(CCC(C)C(C)O1)C3 (stereo not drawn) [KSB-1939L3β]
Distinction of basic, acidic or neutral [1]: Neutral
Solubility in organic solvents (Solubility): Soluble
Solubility in water (Solubility): Insoluble

CC1=CCC2CC(CC3(CCC(C)C(C)O3)O2)OC(=O)C2C=C(COC(=O)CC(C)C)C(O)C3OCC(=CC=CC(C)C1)C23O (stereo not shown) [KSB-1939H3]
LD50 [5]: > 5000 mg/kg
mortality at 0.2 ppm (Twospotted Spider Mite [3]): 100%
mortality at 1 ppm (Twospotted Spider Mite [3]): 100%
mortality at 5 ppm (Twospotted Spider Mite [3]): 100%
LC50 [4]: 1.5 µg/mL (≈ 2.39 µM)
mortality at 5 ppm (Brown Rice Planthopper): 65%
mortality at 25 ppm (Brown Rice Planthopper): 100%
Distinction of basic, acidic or neutral [1]: Neutral
Solubility in organic solvents (Solubility): Soluble
Solubility in water (Solubility): Insoluble
mortality at 25 ppm (Diamondback Moth): 100%

CC1=C[C@H]2C(=O)O[C@H]3C[C@@H](C/C=C(\C)C[C@@H](C)/C=C/C=C4\CO[C@H]([C@@H]1O)[C@@]42O)O[C@@]1(CC[C@H](C)[C@@H](C(C)C)O1)C3 [Milbemycin D, reference compound]
LC50 [4]: 7.5 µg/mL (≈ 13.5 µM)

CCC1OC2(CCC1C)CC1CC(CC=C(C)CC(C)C=CC=C3COC4C(O)C(COC(=O)C=C(C)C)=CC(C(=O)O1)C34O)O2 (stereo not shown) [KSB-1939S5]
LD50 [5]: > 5000 mg/kg
mortality at 0.04 ppm (Twospotted Spider Mite [3]): 45.7%
mortality at 0.2 ppm (Twospotted Spider Mite [3]): 100%
mortality at 1 ppm (Twospotted Spider Mite [3]): 100%
LC50 [4]: 3.5 µg/mL (≈ 5.46 µM)
mortality at 1 ppm (Brown Rice Planthopper): 85%
mortality at 5 ppm (Brown Rice Planthopper): 100%
LC50 (Twospotted Spider Mite [2]): 0.0339 µg/mL (≈ 0.0529 µM)
Distinction of basic, acidic or neutral [1]: Neutral
LC50 (Kanzawa spider mite): 0.0643 µg/mL (≈ 0.1 µM)
Solubility in organic solvents (Solubility): Soluble
Solubility in water (Solubility): Insoluble
